Calls of active or inactive are those of the source. The calls are words filed in the database; no cut-off is given here.
Key:
[1] = Cytotoxicity against mouse BMMC cells assessed as inhibition of cell growth incubated for 48 hrs by MTT assay; assay type: toxicity, cell-based
[2] = tested on: BMMC; assay: Anti-osteoclastogenic activity in mouse BMMC cells assessed as inhibition of RANKL mediated osteoclast differentiation by TRAP activity; assay type: functional, cell-based
[3] = Selectivity index, ratio of CC50 for cytotoxicity against mouse BMMC cells to IC50 for anti-osteoclastogenic activity in mouse BMMC cells; assay type: toxicity, cell-based; settings: read-out: Ratio CC50/IC50
[4] = target: MAP kinase p38 (Mus musculus) (UniProt P47811+O08911+Q9WUI1+Q9Z1B7); assay: Inhibition of RANKL-induced p38 MAPK phosphorylation in mouse BMMC cells by Western blot analysis; assay type: cell-based; settings: dose 0.5-1.5 µM
[5] = target: Mitogen-activated protein kinase 1 and 3 (ERK2 and ERK1) (Mus musculus) (UniProt P63085+Q63844); assay: Inhibition of RANKL-induced ERK1/2 phosphorylation in mouse BMMC cells by Western blot analysis; assay type: cell-based; settings: dose 0.5-1.5 µM
Chain of Mitogen-activated protein kinase 1 and 3 (ERK2 and ERK1) (Mus musculus) (P63085 whole entry, looked up): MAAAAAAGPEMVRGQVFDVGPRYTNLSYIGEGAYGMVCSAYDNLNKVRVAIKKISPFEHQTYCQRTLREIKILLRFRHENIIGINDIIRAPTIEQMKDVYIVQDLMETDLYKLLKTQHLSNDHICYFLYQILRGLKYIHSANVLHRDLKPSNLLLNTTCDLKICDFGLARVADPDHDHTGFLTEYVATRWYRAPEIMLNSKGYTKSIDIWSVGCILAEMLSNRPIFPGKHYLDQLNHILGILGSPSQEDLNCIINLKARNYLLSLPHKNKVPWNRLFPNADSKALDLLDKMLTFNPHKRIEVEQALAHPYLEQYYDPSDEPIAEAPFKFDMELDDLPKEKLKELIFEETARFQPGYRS
Chain of Mitogen-activated protein kinase 1 and 3 (ERK2 and ERK1) (Mus musculus) (Q63844 whole entry, looked up): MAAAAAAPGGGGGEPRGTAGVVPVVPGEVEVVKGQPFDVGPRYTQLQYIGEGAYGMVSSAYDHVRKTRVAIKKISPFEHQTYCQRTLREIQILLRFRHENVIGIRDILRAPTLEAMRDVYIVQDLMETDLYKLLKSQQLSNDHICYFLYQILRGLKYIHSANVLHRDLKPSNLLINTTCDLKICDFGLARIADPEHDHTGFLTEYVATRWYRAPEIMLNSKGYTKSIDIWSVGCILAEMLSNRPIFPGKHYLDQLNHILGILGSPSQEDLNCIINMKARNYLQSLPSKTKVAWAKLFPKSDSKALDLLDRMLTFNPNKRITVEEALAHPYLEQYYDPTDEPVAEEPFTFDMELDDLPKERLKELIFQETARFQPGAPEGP

[6] = tested on: BMMC; assay: Inhibition of RANKL-induced JNK1/2 phosphorylation in mouse BMMC cells by Western blot analysis; assay type: cell-based; settings: dose 0.5-1.5 µM
[7] = tested on: BMMC; assay: Inhibition of RANKL-induced NFkappaB signaling in mouse BMMC cells assessed as inhibition of NFkappab nuclear translocation at 5 to 10 uM by Western blot analysis; assay type: cell-based; settings: dose 5-10 µM

- inhibition [4]: Dose-Dependent Effect
- inhibition [5]: Dose-Dependent Effect
Structure (SMILES): C[C@@H]1C=C2C=C[C@@](C)(O)[C@]3(C)C(=O)[C@@](O)(CO)O[C@@H](C1)[C@@H]23
- CC50 at 48 h [1]: > 30 µM
- IC50 [2]: 6.3 µM
- selectivity ratio [3]: > 4.8
- inhibition [6]: Dose-Dependent Effect
- inhibition [7]: Active

— ChEMBL document CHEMBL5385917, “Irpetones A and B, Anti-Osteoclastic Heptaketides from a Marine Mesophotic Zone Ircinia Sponge-Associated Fungus Irpex sp. NBUF088” (J Nat Prod, 2024)
